According to patent publication US20090007283A1, “Transgenic Rodents Selectively Expressing Human B1 Bradykinin Receptor Protein” (priority 2003, published 2009):
Blank lines part the entries; values can stand above or below the molecule they belong to.

How the values were obtained:
[1] = target: T1, hb1 (Homo sapiens, UniProt P46663); assay: binding data, hb1; conditions: human B1 receptor; kind of constant not given
T1 sequence (P46663 1-353): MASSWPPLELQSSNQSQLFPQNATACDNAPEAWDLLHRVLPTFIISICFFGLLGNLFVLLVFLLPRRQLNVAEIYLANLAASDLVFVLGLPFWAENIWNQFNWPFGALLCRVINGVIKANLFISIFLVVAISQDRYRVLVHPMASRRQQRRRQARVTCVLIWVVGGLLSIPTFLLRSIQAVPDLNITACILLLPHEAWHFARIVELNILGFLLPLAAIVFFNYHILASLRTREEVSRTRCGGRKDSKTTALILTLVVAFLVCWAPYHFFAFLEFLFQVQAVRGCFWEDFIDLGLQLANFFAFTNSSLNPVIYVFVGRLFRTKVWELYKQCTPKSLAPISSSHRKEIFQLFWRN

[2] = target: T2, rat b1 (Rattus norvegicus, UniProt P97583); assay: binding data, rat b1; conditions: rat B1 receptor; kind of constant not given
T2 sequence (P97583 1-337): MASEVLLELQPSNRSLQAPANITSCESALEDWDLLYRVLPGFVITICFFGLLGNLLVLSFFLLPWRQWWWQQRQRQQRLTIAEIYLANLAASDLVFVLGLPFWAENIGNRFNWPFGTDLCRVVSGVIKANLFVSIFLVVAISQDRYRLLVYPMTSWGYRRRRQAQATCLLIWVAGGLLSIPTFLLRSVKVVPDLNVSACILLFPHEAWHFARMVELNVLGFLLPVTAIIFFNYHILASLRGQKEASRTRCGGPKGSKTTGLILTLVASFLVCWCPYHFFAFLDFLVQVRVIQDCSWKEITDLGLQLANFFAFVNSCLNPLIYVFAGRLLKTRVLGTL

[3] = target: T3, human B1 receptor (Homo sapiens, UniProt P46663); assay: Functional assay: DAK-induced contraction of fundus and ileum tissue from line 13 mice homozygous for the human B1 receptor gene
T3 construct: from tissue; host or cells: stomach fundus and ileum of line 13 mice homozygous for the human B1 receptor knock-in (targeting vector pB1R-KI2)
T3 sequence (P46663 1-353): T1 sequence (P46663 1-353)
Experimental: A functional assay was carried out twice on homozygous human b1 mouse fundus and ileum tissue to evaluate its B1 receptor activity in line 13, a mouse line homozygous for replacement of the mouse B1 gene with the human B1 receptor gene. A selective human B1 receptor compound (Compound #1) was tested for antagonistic activity against the receptor from these knock-in mice. Specifically, two homozygous mice were euthanized with CO2. Their stomach and ileum were removed and the fundic portion was divided in half by cutting an incision along the greater curvature. A medial longitudinal strip about 1 mm×0.6 cm was obtained by making cut along the midline incision. Two fundic strips were obtained from each stomach. The ileum was cut about 4 cm from the cecum. Each ileum is divided into two pieces and whole muscle was used. […] Each piece of ileum was tied one end to a glass rod with silk 4-0 and the other end to the Statham—Gould force transducer. One gram tension was applied to each tissue and contraction was recorded by a Hewlett-Packard 7758 recorder. All tissues receive 50 mM KCl at the end of 1 hr equilibrium for maximal response. The tissues are washed every 20 min for one hour. 30 nM of Compound #1 was added to two treated ileum or two treated fundus tissues and incubated for one hour. 0.1 μM M422 and 1 μM thiorphan are added to the bath 30 min before DAK dosing. A cumulative dose-response of DAK (10-^10M to 3×10^−5M) is carried out after pre-incubation.
DAK is diluted in Krebs solution. Full log dilution is made by adding 25 μl in […]. Compound #1 is diluted in DMSO.

[4] = target: T4, B1 receptor (Mus musculus, UniProt Q61125); assay: DAK response of the stomach fundus in wild type mice
T4 construct: from tissue; host or cells: stomach fundus of wild type mice
T4 sequence (Q61125 1-334): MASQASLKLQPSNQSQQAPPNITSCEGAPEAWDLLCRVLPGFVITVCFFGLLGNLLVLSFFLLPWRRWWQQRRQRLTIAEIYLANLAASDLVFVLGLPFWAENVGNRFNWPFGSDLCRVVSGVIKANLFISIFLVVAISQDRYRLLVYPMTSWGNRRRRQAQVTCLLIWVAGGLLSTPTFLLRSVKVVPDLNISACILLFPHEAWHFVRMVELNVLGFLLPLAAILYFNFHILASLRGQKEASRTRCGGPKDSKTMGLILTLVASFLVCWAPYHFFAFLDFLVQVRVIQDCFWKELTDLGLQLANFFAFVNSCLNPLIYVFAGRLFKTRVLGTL
Text: This phenotype is detailed herein via a functional assay showing the effect of a selective antagonist of the human B1 receptor. […] Therefore, the transgenic mice of the present invention, including but not limited to the humanized mice exemplified herein, will be useful to evaluate the efficacy of human selective compounds in both in vitro and in vivo assays. The addition of exogenous agonist, or the natural release of endogenous agonist resulting from a stimulus, may activate the human receptor. The ability of human selective compounds to antagonize the activation of the receptor will permit a determination of the efficacy of the compound in these animal models. To this end, the humanized B1 transgenic models as described herein will be useful to screen any potential modulator of receptor activity (e.g., antagonists or agonists), including but not necessarily limited to peptides, proteins, or non-proteinaceous organic or inorganic molecules. The transgenic animals of the present invention provide for improved models to evaluate the efficacy of human selective compounds in both in non-human animal models, such as rodents humanized for expression of the B1 receptor. […] Even if successful, the properties of compounds selective for humans could not be assessed. […]

[5] = target: T5, human B1 bradykinin receptor (human) (UniProt P46663); assay: cell-based or functional assay
T5 sequence (looked up): T1 sequence (P46663 1-353)

Ki [1]: 0.04 nM | Ki [2]: 591 nM | Kb ([3]; homozygous mouse fundus, Experiment #2 combined with Experiment #1 (n = 4)): 0.25 nM | Kb ([3]; homozygous mouse fundus, line 13, Experiment #1, 30 nM antagonist vs DAK): 0.27 nM | Kb ([3]; homozygous mouse fundus, line 13, Experiment #2, 30 nM antagonist vs DAK): 0.23 nM | Kb ([3]; homozygous mouse ileum, Experiment #2 combined with Experiment #1 (n = 4)): 0.09 nM | Kb ([3]; homozygous mouse ileum, line 13, Experiment #1, 30 nM antagonist vs DAK): 0.11 nM | Kb ([3]; homozygous mouse ileum, line 13, Experiment #2, 30 nM antagonist vs DAK): 0.21 nM | sensitivity of the DAK response to the human B1 selective antagonist [4]: insensitive
Molecule: O=C(C[C@@H]1C(=O)NCCN1S(=O)(=O)c1cccc2c1NCCC2)NCCc1ccc(C2=NCCN2)cc1 [Compound #1]

EC50 of des-arg^10-kallidin, contraction of homozygous mouse ileum, Control (n = 2), Experiment #1 [5]: 4 nM
Molecule: des-Arg^10 kallidin (from UniProt P01042 380-388) (peptide)

Molecule: des-Arg^10 kallidin [des-arg^10-kallidin, reference compound]
DAK contractile response ([3]; Line #13 homozygous mice, compared with wild type): full DAK contractile responses
